From ChEMBL document CHEMBL3507680, “University of Dundee, Gates Library screen for HepG2 cell viability” come the findings set out here.

The nature of this data set: Human HepG2 cell viability assay in 384 well format. Format: toxicity, cell-based. Further details: dose 125 nL, time 70.5 hour; cytotoxicity at 70.5 h: concentration not given beside the values. Conditions: HepG2 cells, read-out: Inhibition.

With `CCN(C)Cc1cccc(CNC(=O)CSCc2ccncc2)c1`, the cytotoxicity at 70.5 h is -6.72%. As to `CC(C(=O)NCC(C)(C)c1ccc(Br)cc1)n1cncn1` (stereo not given), the cytotoxicity at 70.5 h is -12.2%. Next, `Cc1nn(C)c(C)c1CCC(=O)NCC1(C(N)=O)CCOCC1`: -17.6%; `Cc1nc(C)n(CC2CCCN2c2ncnc3sc(C)c(C)c23)n1` (stereo not given): -3.31%; `Cc1ncc2c(n1)CN(Cc1nc(-c3ccco3)oc1C)CC2`: -10.5%.

Take `Cc1nc(NCc2nnc(C)n2C)c2c(CC(C)C)csc2n1`: the cytotoxicity at 70.5 h turned out to be 0.805%. Next, `CCC(C#N)NC(=O)c1sccc1OC` (stereo not given): -10.7%; `COC(=O)CCN(C)C(=O)c1csc(Cc2ccccc2F)n1`: 0.501%; `CC1(C)CN(Cc2ccncc2)CCS1(=O)=O`: 24.1%. Take `CN(C)CC(O)Cn1cc(NCc2ccc(Br)cc2)cn1` (stereo not given): the cytotoxicity at 70.5 h was -2.01%. Next, `N#Cc1ccc(Cl)cc1NCC1CCOC1` (stereo not given): -1.84%; `CS(=O)(=O)CCCNc1cccc(COC2CCCCC2)c1`: -12.7%; `Cc1ccc(CN2CCS(=O)(=O)C(C)(C)C2)cc1C`: 20.3%. Next, `CCCSCC(=O)NCc1cccc(CN(C)CC)c1`: -9.96%; `COc1ccc(CNC(C)c2cnn(C)c2)cc1OC1CCCC1` (stereo not given): -3.45%. Next, `Cc1ccc(=O)n(Cc2csc(N(C)C3CC3)n2)n1`: -10.2%.

Consider `COc1ccc(Cl)cc1CS(=O)(=O)Cc1nc(C2CC2)no1`, for which the cytotoxicity at 70.5 h is -5.91%.

Consider `N#Cc1ccc(F)c(CN2CCc3sccc3C2)c1`, for which the cytotoxicity at 70.5 h is -5.04%.

In the case of `Cc1ccc(C(=O)NC(C)Cn2cccn2)c(=O)[nH]1` (stereo not given), the cytotoxicity at 70.5 h worked out at 8.15%. Regarding `Cc1ccc(C(=O)NCC(C)Cn2cccn2)c(=O)[nH]1` (stereo not given), the cytotoxicity at 70.5 h was -3.38%.

As to `CC1CN(C(=O)c2cnn(-c3ccccn3)c2C(C)C)CC(C)(C)O1` (stereo not given), the cytotoxicity at 70.5 h is -4.17%. Next, `COc1c(Cl)cc(C(=O)NCc2n[nH]c(C)n2)cc1Cl`: 2.06%; `CCc1c(C(=O)N2CC(C)OC(C)(C)C2)cnn1-c1ccccn1` (stereo not given): -4.53%. For `Cc1[nH]nc2ncc(C(=O)N3CCN(C(C)(C)C)CC3)cc12`, the cytotoxicity at 70.5 h is -0.02%. Next, `Cc1nnc2n1CCN(Cc1nc3ccccc3o1)C2`: -3.32%. Next, `COc1ccc(Cl)cc1CS(=O)(=O)Cc1noc(C)n1`: 12.6%; `CCc1nnc2n1CCN(c1nc3ccccc3o1)C2`: -7.72%. Next, `Cc1nnc2n1CCN(c1nc3ccccc3o1)C2`: 1.55%; `Cc1noc(C(C)Nc2ccc3oc(=O)[nH]c3c2)n1` (stereo not given): -0.467%; `COc1ccccc1C(=O)NCc1n[nH]c(C)n1`: 0.0224%. As to `Cc1nn(C)c(C)c1C1CCCN1Cc1nnc(C2CC2)n1C` (stereo not given), the cytotoxicity at 70.5 h was -1.77%. Next, `Cc1[nH]nc2ncc(C(=O)N3CCN(CC(C)(C)O)CC3)cc12`: -0.78%; `O=C(CC1OCCc2ccccc21)NCCn1cccc1` (stereo not given): -4.75%; `N#CC(NC(=O)c1cccc2c1OCCO2)c1ccc(F)cc1F` (stereo not given): -4.12%. Next, `O=C(CN1CCCS1(=O)=O)Nc1ccc(OC2CCCC2)c(Cl)c1`: -0.366%; `CSc1c[nH]nc1NS(=O)(=O)c1ccc(C)c(C)c1`: -2.13%. Consider `Cc1ccc(-c2ncc(CN3CCN(S(N)(=O)=O)CC3)s2)o1`, for which the cytotoxicity at 70.5 h is 0.625%. Next, `COc1c(C2CCCN2Cc2nccn2C)c(C)nn1C` (stereo not given): 2.44%; `CCN(C)S(=O)(=O)N(Cc1cscn1)c1ccccc1`: -7.14%; `COc1c(C2CCCN2Cc2nnc(C3CC3)n2C)c(C)nn1C` (stereo not given): -5.73%. Next, `O=c1ccncn1Cc1csc(C2CC2)n1`: -3.74%. Next, `Cc1cc(C)n2c(CNCc3ccc(OC(F)F)cc3)cnc2n1`: -9.15%.

`CC(C)c1nnc(CN2CC(n3cccn3)C2)o1`: the cytotoxicity at 70.5 h is -6.56%. Next, `CNC(=O)C1Cc2ccccc2CN1C(=O)CC(C)C` (stereo not given): -10.1%; `CCN(CC)C(CNC(=O)c1ccc(-n2cncn2)cc1)c1ccsc1` (stereo not given): -3.69%; `CN(C)C(CNC(=O)c1ccnc(-n2cncn2)c1)c1ccccc1` (stereo not given): -9.4%.

Turning to `O=C(NCC1CCS(=O)(=O)C1)N(Cc1ccncc1)C1CC1` (stereo not given), the cytotoxicity at 70.5 h was -6.32%. Next, `COc1ccccc1C(C)(C)NC(=O)c1ccc(F)c(NC(C)=O)c1`: -7.74%; `Cc1nnc(N2CCc3cncnc3C2)c(C#N)c1C`: -4.76%; `COc1ccccc1C(C)(C)NC(=O)Nc1ccc(F)c(C(N)=O)c1`: -4.97%. Next, `NS(=O)(=O)c1ccc(NCc2ccco2)c2ncccc12`: 8.34%. Next, `CCc1cc(=O)[nH]c(-c2ccc(NC(C)CN3CCOCC3)nc2)n1` (stereo not given): -0.904%; `CCC(c1ccc(F)cc1)S(=O)(=O)CCO` (stereo not given): 15.3%; `Cn1cc(C2CN(C(=O)Cc3coc(-c4ccccc4)n3)CCO2)cn1` (stereo not given): 4.27%. `CC(C)CCC(=O)NCC(=O)N1CCCCCC1c1ccco1` (stereo not given): the cytotoxicity at 70.5 h was -5.74%.

Turning to `CCOCCCC(=O)N1CCN(c2cccc(OC)c2)C(C)C1` (stereo not given), the cytotoxicity at 70.5 h amounted to 12.3%. Next, `Cc1cc(I)cnc1NC(=O)C(C)(C)C`: 5.65%; `CCC(CC)N(Cc1cc(=O)n(C)c(=O)n1C)C1CC1`: 5.26%; `O=C(Cn1ccc(=O)[nH]c1=O)NCC1Cc2ccccc2O1` (stereo not given): -11.6%. Next, `Cn1ccc(CN2CCCC(CNS(C)(=O)=O)C2)cc1=O` (stereo not given): -10.1%. Next, `CC(C)C(C(=O)NC1CC1)n1cnc2cc(F)c(F)cc21` (stereo not given): -0.654%; `COC(=O)C(C)N(Cc1cc(=O)n(C)c(=O)n1C)C1CC1` (stereo not given): 4.91%. As to `Clc1ccc(C2(NCc3noc(C4CC4)n3)CCOCC2)cc1`, the cytotoxicity at 70.5 h is -8.54%.

As for `N#CC1(C(=O)N2CCC(Nc3cccnn3)CC2)CCCCC1`, the cytotoxicity at 70.5 h was 0.814%.

Regarding `CC(Nc1ccc(N2C(=O)CCCC2=O)cc1)c1ccc(C#N)cc1` (stereo not given), the cytotoxicity at 70.5 h was -6.87%. As for `CCOCC(=O)Nc1ncc(I)cc1C`, the cytotoxicity at 70.5 h was -7.61%. Consider `CN(C)Cc1ccc(NC(=O)c2nccn3ccnc23)cc1`, for which the cytotoxicity at 70.5 h was -4.61%.

On to `Cc1noc(C)c1NS(=O)(=O)c1cc(C(=O)O)cc(Cl)c1Cl`, for which the cytotoxicity at 70.5 h was -4.5%.

As to `CCCOCC(=O)Nc1ncc(I)cc1C`, the cytotoxicity at 70.5 h stood at 4.92%.

For `Cc1nnc(-c2ccc(C(=O)Nc3ccnc(N(C)C)n3)cc2)o1`, the cytotoxicity at 70.5 h was 4.63%.

For `O=C(Nc1ccc(CN2CCOCC2)cc1)c1nccn2ccnc12`, the cytotoxicity at 70.5 h amounted to 22.2%. Next, `c1ccc(N2CCC(NCc3cccc4cn[nH]c34)C2)cc1` (stereo not given): 7.7%. Next, `CC(CCc1ccccc1)NC(=O)CNCCCN(C)C` (stereo not given): -3.07%. Next, `Fc1ccc(OCCCNC2=NCCCN2)cc1`: -5.27%; `c1ccc(OCCNC2=NCCCN2)cc1`: 24.2%.
